Source: ChEMBL document CHEMBL1133860, “Synthesis and biological evaluation of a series of novel N- or O-fluoroalkyl derivatives of tropane: potential positron emission tomography (PET) imaging agents for the dopamine transporter” (Bioorg Med Chem Lett, 2001)

Assays:
[1] = test system: Monoamine transporters; Norepinephrine & dopamine; experiment: Selectivity for DAT determined as ratio of binding affinity for NET to that for DAT; assay type: protein assay
[2] = molecular target: Sodium-dependent dopamine transporter (Rattus norvegicus, UniProt P23977); experiment: Ability to displace [3H]- beta-CIT from Dopamine transporter in rat striatal homogenate
Chain of Sodium-dependent dopamine transporter (P23977 whole entry): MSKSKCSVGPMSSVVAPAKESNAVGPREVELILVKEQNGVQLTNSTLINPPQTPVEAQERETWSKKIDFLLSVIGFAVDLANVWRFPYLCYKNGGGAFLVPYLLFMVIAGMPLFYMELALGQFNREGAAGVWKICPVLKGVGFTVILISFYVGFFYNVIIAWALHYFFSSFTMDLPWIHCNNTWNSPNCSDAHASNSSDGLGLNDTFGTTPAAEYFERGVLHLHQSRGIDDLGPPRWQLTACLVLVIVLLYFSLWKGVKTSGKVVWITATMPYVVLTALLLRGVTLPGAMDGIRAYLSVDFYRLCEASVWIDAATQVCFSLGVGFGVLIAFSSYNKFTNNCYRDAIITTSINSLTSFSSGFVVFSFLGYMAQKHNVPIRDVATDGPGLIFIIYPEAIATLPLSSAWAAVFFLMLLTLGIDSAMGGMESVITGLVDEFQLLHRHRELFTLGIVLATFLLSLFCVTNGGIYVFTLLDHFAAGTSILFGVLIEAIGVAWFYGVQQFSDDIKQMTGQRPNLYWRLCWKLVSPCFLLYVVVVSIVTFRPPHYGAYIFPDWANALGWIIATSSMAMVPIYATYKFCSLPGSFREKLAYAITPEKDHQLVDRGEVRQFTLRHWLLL

[3] = test system: Monoamine transporters; serotonin & dopamine; experiment: Selectivity for DAT determined as ratio of binding affinity for SERT to that for DAT; assay type: protein assay
[4] = molecular target: Norepinephrine transporter (Rattus norvegicus, UniProt Q9WTR4); experiment: Ability to displace [3H]- nisoxetin from Norepinephrine transporter in rat cerebral cortical homogenate
Chain of Norepinephrine transporter (Q9WTR4 whole entry): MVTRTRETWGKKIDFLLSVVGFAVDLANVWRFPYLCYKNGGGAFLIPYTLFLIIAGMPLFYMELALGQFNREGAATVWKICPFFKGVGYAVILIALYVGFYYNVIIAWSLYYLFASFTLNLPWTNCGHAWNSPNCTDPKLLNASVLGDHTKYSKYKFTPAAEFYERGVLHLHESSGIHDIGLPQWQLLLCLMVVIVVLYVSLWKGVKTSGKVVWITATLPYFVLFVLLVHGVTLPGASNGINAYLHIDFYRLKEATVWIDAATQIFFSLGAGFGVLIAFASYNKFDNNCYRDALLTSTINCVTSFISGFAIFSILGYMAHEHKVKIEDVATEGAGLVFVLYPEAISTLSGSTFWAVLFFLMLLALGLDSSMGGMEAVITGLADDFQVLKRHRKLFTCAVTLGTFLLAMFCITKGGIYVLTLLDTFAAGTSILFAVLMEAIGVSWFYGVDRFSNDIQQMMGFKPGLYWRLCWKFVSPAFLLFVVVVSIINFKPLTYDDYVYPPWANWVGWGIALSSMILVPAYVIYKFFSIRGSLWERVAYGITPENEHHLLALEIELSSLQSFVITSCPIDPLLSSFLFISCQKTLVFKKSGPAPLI

[5] = molecular target: Sodium-dependent serotonin transporter (Rattus norvegicus, UniProt P31652); experiment: Ability to displace [3H]- paroxetine from Serotonin transporter in rat cerebral cortical homogenate
Chain of Sodium-dependent serotonin transporter (P31652 whole entry): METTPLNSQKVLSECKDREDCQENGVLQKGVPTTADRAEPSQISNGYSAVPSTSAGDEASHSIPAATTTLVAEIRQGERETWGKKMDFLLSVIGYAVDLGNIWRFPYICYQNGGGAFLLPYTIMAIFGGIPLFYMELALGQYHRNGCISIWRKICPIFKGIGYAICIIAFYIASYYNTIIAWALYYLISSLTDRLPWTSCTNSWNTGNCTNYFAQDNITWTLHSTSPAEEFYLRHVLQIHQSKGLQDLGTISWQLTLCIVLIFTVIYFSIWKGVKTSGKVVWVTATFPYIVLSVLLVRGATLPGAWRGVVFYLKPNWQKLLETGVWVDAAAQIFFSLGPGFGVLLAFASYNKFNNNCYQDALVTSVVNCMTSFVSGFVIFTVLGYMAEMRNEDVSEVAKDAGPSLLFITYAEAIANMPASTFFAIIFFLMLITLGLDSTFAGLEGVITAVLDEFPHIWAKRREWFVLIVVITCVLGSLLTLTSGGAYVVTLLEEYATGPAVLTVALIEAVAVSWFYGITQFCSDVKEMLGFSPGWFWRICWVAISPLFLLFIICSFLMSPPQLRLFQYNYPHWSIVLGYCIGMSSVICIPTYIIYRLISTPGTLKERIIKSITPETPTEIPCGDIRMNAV

SMILES | Selectivity ratio [1] | Ki [2] [nM] | Selectivity ratio [3] | Ki [4] [nM] | Ki [5] [nM]
COC(=O)C1C(c2ccc(Br)cc2)CC2CCC1N2CCCF (configuration not stated) | 58.9 | 3.33 | 10.9 | 196 | 36.4
CN1C2CCC1C(C(=O)OCCF)C(c1ccc(I)cc1)C2 (configuration not stated) | 112 | 0.93 | 1.1 | 173 | 1.65
COC(=O)C1C(c2ccc(C)cc2)CC2CCC1N2CCF (configuration not stated) | 8.4 | 32.1 | 11.7 | 268 | 375
COC(=O)C1C(c2ccc(C)cc2)CC2CCC1N2CCCF (configuration not stated) | 32.1 | 37.6 | 34.9 | 1210 | 1310
CN1C2CCC1C(C(=O)OCCCF)C(c1ccc(I)cc1)C2 (configuration not stated) | 112 | 1.54 | 1.1 | 173 | 1.65
O=C(OCCF)C1C(c2ccc(I)cc2)CC2CCC1N2CCCF (configuration not stated) | 83 | 8.71 | 1.5 | 723 | 13.3
COC(=O)[C@@H]1C2CC[C@H](C[C@@H]1c1ccc(I)cc1)N2C | 2.1 | 1.33 | 0.4 |  | 
Cc1ccc(C2CC3CCC(C2C(=O)OCCCF)N3C)cc1 (configuration not stated) | 36.3 | 7.17 | 45.3 | 260 | 325
COC(=O)C1C(c2ccc(I)cc2)CC2CCC1N2CCCF (configuration not stated) | 7.6 | 8.29 | 0.2 |  | 1.68
COC(=O)C1C2CCC(CC1c1ccc(I)cc1)N2 (configuration not stated) | 2.9 | 0.64 | 0.1 | 1.85 | 0.06
